Each compound was assayed against T1, human MCH-1R (Homo sapiens, UniProt Q99705) (assay: MCH binding inhibition test). Settings: membrane samples from MCH-1R expressing CHO-K1 cells, 50 pM [125I]MCH, 25° C., one hour, pH 7.4; read-out: IC50 (50% inhibition concentration of test compound to the specific [125I]MCH binding).
T1 construct: expressed in transfected cells; host or cells: CHO-K1 (American Type Culture Collection), vector pEF/myc/cyto (Invitrogen)
Method: A human MCH-1R encoding cDNA sequence [FEBS Letters, Vol. 398, 253 (1996); Biochimica et Biophisica Acta, Vol. 1401, 216 (1998)] was cloned to a plasmid vector pEF/myc/cyto (Invitrogen Corporation). The obtained expression vector was transfected to host cells CHO-K1 (American Type Culture Collection) using Lipofectamine Plus Reagent (Life Technology Inc.) to provide MCH-1R expression cells.
Membrane samples prepared from the MCH-1R expression cells were incubated with each test compound and 50 pM of [^125I]MCH (NEN Co.), in an assay buffer (50 mM Tris buffer comprising 10 mM magnesium chloride, 2 mM ethylenediamine tetraacetate, 0.01% bacitracin and 0.2% bovine serum albumin; pH 7.4) at 25° C. for an hour, followed by filtration through a glass filter GF/C (Wattman Co.). After washing the glass filter with 50 mM Tris buffer (pH 7.4) comprising 10 mM magnesium chloride, 2 mM ethylenediamine tetraacetate and 0.04% Tween-20, the radioactive activity on the glass filter was measured. The non-specific binding was measured in the presence of 1 μM human MCH and 50% inhibition concentration (IC50 value) of each test compound to the specific [^125I]MCH binding was determined.

T1 sequence (Q99705 whole entry): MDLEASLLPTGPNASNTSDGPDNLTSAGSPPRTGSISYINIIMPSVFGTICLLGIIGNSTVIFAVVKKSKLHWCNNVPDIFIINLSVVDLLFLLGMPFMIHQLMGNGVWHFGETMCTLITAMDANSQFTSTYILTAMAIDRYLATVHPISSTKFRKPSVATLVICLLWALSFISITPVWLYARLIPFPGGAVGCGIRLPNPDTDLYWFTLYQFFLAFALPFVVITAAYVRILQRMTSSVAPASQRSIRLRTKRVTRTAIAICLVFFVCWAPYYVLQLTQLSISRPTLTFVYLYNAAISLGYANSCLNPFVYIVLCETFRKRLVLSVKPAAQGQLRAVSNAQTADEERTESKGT

Row | SMILES | IC50
1 | CCN(CC)Cc1ccc(CCn2ccc(OCc3ccc(Cl)cn3)cc2=O)cc1 [Example 14, 4-[(5-Chloropyridin-2-yl)methoxy]-1-(2-{4-[(diethylamino)methyl]phenyl}ethyl)pyridin-2(1H)-one] | 7.3 nM
2 | O=c1cc(OCc2ccc(Cl)cn2)ccn1CCc1ccc(CN2CCCC2)cc1 [Example 26, 4-[(5-Chloropyridin-2-yl)methoxy]-1-(2-[4-(pyrrolidin-1-ylmethyl)phenyl]ethyl}pyridin-2(1H)-one] | 5.8 nM
3 | CCN(CC)Cc1ccc(CCn2ccc(OCc3ccc(F)cc3)cc2=O)cc1 [Example 2, 1-(2-{4-[(Diethylamino)methyl]phenyl}ethyl)-4-[(4-fluorobenzyl)oxy]pyridin-2(1H)one] | 5.9 nM
4 | O=c1cc(OCc2ccc(Cl)cc2)ccn1CCc1ccc(CN2C3CCC2CC3)cc1 [Example 41, 1-{2-[4-(7-Azabicyclo[2.2.1]hept-7-ylmethyl)phenyl]ethyl}-4-[(4-chlorobenzyl)oxy]pyridin-2(1H)-one] | 3 nM
5 | CCCNCc1ccc(CCn2ccc(OCc3ccc(F)cc3)cc2=O)cc1 [Example 72, 4-[(4-Fluorobenzyl)oxy]-1-(2-{4-[(propylamino)methyl]phenyl}ethyl)pyridin-2(1H)-one] | 2.6 nM

Source: patent publication US20100216758A1, “Pyridone Compounds” (priority 2005, published 2010)
